This note sets out measurements from ChEMBL document CHEMBL5154848, “Synthesis of heterocyclic ring-fused analogs of HMG499 as novel degraders of HMG-CoA reductase that lower cholesterol” (Eur J Med Chem, 2022).

Common to all, as to format: cell-based
Data set [1] in a line: Toxicity in human SV589 cells assessed as cholesterol accumulation in lysosome at 2.5 uM incubated for 16 hrs by immunofluorescence based confocal microscopy. As to conditions: sv-589, 16 h.
In data set [2] the target is T1, 3-hydroxy-3-methylglutaryl-coenzyme A reductase (Cricetulus griseus, UniProt P00347).
T1 sequence (P00347 whole entry): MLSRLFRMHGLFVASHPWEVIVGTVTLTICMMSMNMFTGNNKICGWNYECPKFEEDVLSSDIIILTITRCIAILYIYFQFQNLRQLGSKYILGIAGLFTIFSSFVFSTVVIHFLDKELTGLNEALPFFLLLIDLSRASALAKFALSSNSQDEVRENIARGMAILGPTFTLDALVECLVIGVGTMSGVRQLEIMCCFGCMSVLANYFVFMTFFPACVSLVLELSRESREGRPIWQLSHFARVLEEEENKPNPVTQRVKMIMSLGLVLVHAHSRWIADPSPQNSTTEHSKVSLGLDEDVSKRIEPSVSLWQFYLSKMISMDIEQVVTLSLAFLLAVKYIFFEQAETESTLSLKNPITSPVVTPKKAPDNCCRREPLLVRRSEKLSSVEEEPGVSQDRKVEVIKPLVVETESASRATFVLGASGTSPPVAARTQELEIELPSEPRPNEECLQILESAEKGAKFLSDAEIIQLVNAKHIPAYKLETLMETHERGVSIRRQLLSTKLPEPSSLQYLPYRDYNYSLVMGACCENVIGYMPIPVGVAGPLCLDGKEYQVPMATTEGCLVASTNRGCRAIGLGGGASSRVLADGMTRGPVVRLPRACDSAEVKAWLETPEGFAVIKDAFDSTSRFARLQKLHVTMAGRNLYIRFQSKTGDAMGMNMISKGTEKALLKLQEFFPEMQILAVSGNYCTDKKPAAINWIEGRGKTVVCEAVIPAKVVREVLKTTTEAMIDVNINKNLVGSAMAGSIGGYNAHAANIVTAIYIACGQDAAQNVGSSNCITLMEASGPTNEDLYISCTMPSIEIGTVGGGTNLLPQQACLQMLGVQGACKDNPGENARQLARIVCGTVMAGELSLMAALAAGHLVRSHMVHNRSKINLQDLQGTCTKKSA
Put plainly: Induction of degradation of hamster HMGCR (TM1-8)-GFP (1 to 346 residues) transfected in CHO-7 cells incubated for 16 hrs in sterol-depleted medium by fluorescence based microplate reader assay.

A short description of data set [3]: Toxicity in human SV589 cells assessed as cholesterol accumulation in lysosome at 10 uM incubated for 16 hrs by immunofluorescence based confocal microscopy. As to conditions: sv-589, 16 h.

As for `CCN(CC)CCO[C@H]1CC[C@@]2(C)C(=CC[C@@H]3[C@@H]2CC[C@]2(C)C(=O)CC[C@@H]32)C1.Cl`, the Activity result in data set [1] is reported as “Toxic”. Regarding `C=CCC(O)(CC=C)CCC[C@@H](C)[C@H]1CC[C@H]2[C@@H]3[C@@H](O)C=C4C(C)(C)[C@@H](O)CC[C@]4(C)[C@H]3CC[C@]12C`, the response in data set [2] was half-maximal at 410 nM (EC50). In addition, the Activity result in data set [3] was “Toxic”.

In the case of `CC(=O)n1cnc2c1C(C)(C)C1=C[C@H](O)[C@H]3[C@@H]4CC[C@H]([C@H](C)CCC(=O)N5CCOCC5)[C@@]4(C)CC[C@@H]3[C@@]1(C)C2`, the response in data set [2] was half-maximal at 8160 nM (EC50). Further, the Activity entry in data set [3] is listed as “Toxic”. The like results for `C[C@H](CCC(=O)O)[C@H]1CC[C@H]2[C@@H]3CC=C4C(C)(C)c5sc(N)nc5C[C@]4(C)[C@H]3CC[C@]12C` were, in that order, 4940 nM and “Non-Toxic”.

Regarding `CC(C)C(=O)n1cnc2c1C(C)(C)C1=CC[C@H]3[C@@H]4CC[C@H]([C@H](C)CCC(=O)N5CCOCC5)[C@@]4(C)CC[C@@H]3[C@@]1(C)C2`, the EC50 in data set [2] worked out at 430 nM. Moreover, in data set [3], the Activity result is “Non-Toxic”. For the molecule `Cc1nc2c(s1)C(C)(C)C1=CC[C@H]3[C@@H]4CC[C@H]([C@H](C)CCC(=O)O)[C@@]4(C)CC[C@@H]3[C@@]1(C)C2`, the concentration giving a half-maximal response (EC50) in data set [2] worked out at 3370 nM. In addition, in data set [3], the Activity entry is recorded as “Non-Toxic”. The matching figures for `CCC(O)(CC)CCCC[C@@H](C)[C@H]1CC[C@H]2[C@@H]3[C@@H](O)C=C4C(C)(C)[C@@H](O)CC[C@]4(C)[C@H]3CC[C@]12C`: 410 nM and “Toxic”. The like results for `C[C@H](CCC(=O)O)[C@H]1CC[C@H]2[C@@H]3CC=C4C(C)(C)c5nccnc5C[C@]4(C)[C@H]3CC[C@]12C` were, in that order, 5020 nM and “Non-Toxic”. For the molecule `C[C@H](CCCC(C)(C)O)[C@H]1CC[C@H]2[C@@H]3[C@@H](O)C=C4C(C)(C)[C@@H](O)CC[C@]4(C)[C@H]3CC[C@]12C`, a half-maximal effect in data set [2] (EC50) was put at 410 nM. For the same molecule, in data set [3], the Activity entry is recorded as “Toxic”.
